We go through 12 compounds from PubChem BioAssay (NCI).

Some test systems named below: COLO 205 colon; SF-539 CNS; NCI-H226 lung; CCRF-CEM leukemia; HL-60(TB) leukemia; SK-MEL-28 melanoma; SW-620 colon; OVCAR-5 ovarian; NCI-H522 lung; HOP-92 NSCLC.
Test in all cases: DTP human tumour cell line panel, 48 h

Several values for one entry are separate records, joined by “and”; a condition that tells them apart may be missing. Equal values may be shown once.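 Method: 48-hour compound exposure of cells in 96-well plates, five concentrations, linear interpolation of endpoints. GI50 marks 50% less growth. Definition used: TGI = concentration required for complete inhibition of growth.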

For the compound `O=C1NC2(CCCCC2)C2CCCCC(O)C12` (stereo not given), the TGI with COLO 205 colon, in the assay on SF-539 CNS, with NCI-H226 lung, in the assay with CCRF-CEM leukemia, in the assay with HL-60(TB) leukemia and in the assay on SK-MEL-28 melanoma was above 100 µM each time. The TGI in the assay with SW-620 colon and with OVCAR-5 ovarian was above 100 µM throughout.
With `COc1ccc2nc3cc(Cl)ccc3c(Sc3ccccc3[N+](=O)[O-])c2c1`, the concentration for total growth inhibition (TGI) – broadly, the concentration giving total growth inhibition – was above 100 µM in the assay on NCI-H522 lung; 37.7 µM in the assay with COLO 205 colon; above 100 µM with SF-539 CNS; 67.8 µM in the assay with NCI-H226 lung; above 100 µM with CCRF-CEM leukemia; above 100 µM in the assay on SK-MEL-28 melanoma. Also, the TGI in the assay with SW-620 colon, with OVCAR-5 ovarian and in the assay on HOP-92 NSCLC was above 100 µM in each case.
`CC(=O)OC1COC(n2c(=S)n(-c3ccc(C)cc3)c(=O)c3ccccc32)C(OC(C)=O)C1OC(C)=O` (stereo not given): the total growth inhibition concentration (TGI) with NCI-H522 lung, in the assay on COLO 205 colon, in the assay with SF-539 CNS, with NCI-H226 lung, with SK-MEL-28 melanoma and with SW-620 colon was above 100 µM each time. Besides, the TGI in the assay on OVCAR-5 ovarian and in the assay on HOP-92 NSCLC was above 100 µM throughout.
On to `COc1ccccc1NC(=O)CC(=O)n1nc(C)c(N=Nc2ccccc2C(=O)O)c1C`, for which the TGI in the assay with NCI-H522 lung, with COLO 205 colon, with SF-539 CNS, in the assay with CCRF-CEM leukemia, in the assay with HL-60(TB) leukemia and with SK-MEL-28 melanoma was above 100 µM throughout. In addition, the TGI in the assay on SW-620 colon and with OVCAR-5 ovarian was above 100 µM in each case.
Take `CN(CC(=O)O)S(=O)(=O)c1ccc2ccccc2c1`: the concentration for total growth inhibition (TGI) in the assay on NCI-H522 lung, in the assay on COLO 205 colon, in the assay on SF-539 CNS, in the assay with CCRF-CEM leukemia, in the assay with HL-60(TB) leukemia and with SK-MEL-28 melanoma was above 100 µM throughout. In addition, the concentration for total growth inhibition (TGI) in the assay on SW-620 colon, with OVCAR-5 ovarian and in the assay on HOP-92 NSCLC was above 100 µM in each case.
Regarding `CCNC1C2(CCCCC2)NC(=O)C12CCCCC2` (stereo not given), the TGI in the assay with SF-539 CNS, with NCI-H226 lung, in the assay on CCRF-CEM leukemia, with HL-60(TB) leukemia, in the assay with SK-MEL-28 melanoma and with SW-620 colon was above 100 µM each time. Besides, the concentration for total growth inhibition (TGI) with OVCAR-5 ovarian was above 100 µM.
For `CNC(=O)c1cc(Oc2ccc3nc(NC(=O)Nc4ccc(Cl)c(C(F)(F)F)c4)sc3c2)ccn1`, the GI50 – broadly, the concentration at which growth is held to half of that of the control – is 2.54 µM with NCI-H522 lung; 2.69 µM with NCI-H226 lung; above 100 µM in the assay with HL-60(TB) leukemia; 2.99 µM in the assay on SW-620 colon; 2.46 µM in the assay with OVCAR-5 ovarian; 1.15 µM in the assay with HOP-92 NSCLC. The TGI with NCI-H522 lung is above 100 µM; in the assay with NCI-H226 lung it was 7.47 µM; in the assay on HL-60(TB) leukemia, above 100 µM; with SW-620 colon it was above 100 µM; in the assay with OVCAR-5 ovarian, 7.55 µM; in the assay on HOP-92 NSCLC, 3.24 µM.
As for `CSCCCN(CCCSC)CCCSC`, the total growth inhibition concentration (TGI) with NCI-H522 lung is above 100 µM; with COLO 205 colon, above 100 µM; in the assay on SF-539 CNS, above 100 µM; in the assay with CCRF-CEM leukemia it was above 100 µM; with HL-60(TB) leukemia, 50.7 µM; in the assay with SK-MEL-28 melanoma it was above 100 µM. Moreover, the concentration for total growth inhibition (TGI) in the assay on SW-620 colon and in the assay on OVCAR-5 ovarian was above 100 µM throughout.
With `Cc1cc2nc(C(Cl)Cl)nc(-c3ccc(Cl)cc3)n2n1`, the GI50 with NCI-H522 lung was 1.56 µM; in the assay on COLO 205 colon it was 0.603 µM; in the assay on NCI-H226 lung, 3.28 µM; in the assay on CCRF-CEM leukemia, 2.83 µM; with HL-60(TB) leukemia, 1.11 µM; in the assay on SK-MEL-28 melanoma, 1.63 µM. For the same compound, the results for the GI50 with SW-620 colon, in the assay with OVCAR-5 ovarian and in the assay with HOP-92 NSCLC were 0.433 µM, 1.85 µM and 1.53 µM, respectively. The concentration for total growth inhibition (TGI) in the assay on NCI-H522 lung was 5.23 µM; with COLO 205 colon, 2.67 µM; in the assay on NCI-H226 lung, above 100 µM; with CCRF-CEM leukemia, above 100 µM; in the assay with SK-MEL-28 melanoma it was 3.38 µM; with SW-620 colon, 2.93 µM. Also, the figures for the total growth inhibition concentration (TGI) in the assay on OVCAR-5 ovarian and in the assay with HOP-92 NSCLC were 5.56 µM and 4.66 µM, respectively.
Regarding `COc1cccc(NC(=O)CC(=O)n2nc(C)c(N=Nc3ccccc3)c2C)c1`, the TGI in the assay on NCI-H522 lung, with COLO 205 colon, in the assay on SF-539 CNS, with NCI-H226 lung, with SK-MEL-28 melanoma and in the assay with SW-620 colon was above 100 µM throughout. Further, the concentration for total growth inhibition (TGI) with HOP-92 NSCLC was above 100 µM.
Regarding `COc1c2ccoc2c(/C=C/C=O)c2oc(-c3ccccc3)cc(=O)c12`, the GI50 was 17.6 µM in the assay on NCI-H522 lung; 27.7 µM with COLO 205 colon; 3.59 µM in the assay on SF-539 CNS; 4.14 µM in the assay with NCI-H226 lung; 2.33 µM with HL-60(TB) leukemia; 2.73 µM with SK-MEL-28 melanoma. The GI50 was 2.16 µM with SW-620 colon, 22.3 µM with OVCAR-5 ovarian and 11.5 µM with HOP-92 NSCLC. Besides, the TGI in the assay on NCI-H522 lung was above 100 µM; with COLO 205 colon, above 100 µM; in the assay with SF-539 CNS, 16.4 µM; with NCI-H226 lung, 20.4 µM; in the assay with HL-60(TB) leukemia it was 5.62 µM; in the assay with SK-MEL-28 melanoma, 9.17 µM. The TGI is 5.21 µM in the assay on SW-620 colon, 63.7 µM with OVCAR-5 ovarian and above 100 µM in the assay with HOP-92 NSCLC.
For `COC(=O)[C@@H](C)C[C@H](Cc1ccc(F)cc1)NC(=O)c1csc([C@@H](C[C@H](C(C)C)N(C)C(=O)[C@@H](NC(=O)[C@H]2CCCCN2C)C(C)C)OC(C)=O)n1`, the concentration for 50% growth inhibition (GI50) in the assay on NCI-H522 lung is 0.0002 µM; in the assay with COLO 205 colon, 0.00641 µM; in the assay with SF-539 CNS, 0.00153 µM and 0.00714 µM; in the assay with CCRF-CEM leukemia, 0.000973 µM and 0.00639 µM; in the assay on SK-MEL-28 melanoma, above 16.7 µM; with HOP-92 NSCLC it was 0.215 µM and 0.0783 µM. The TGI in the assay with NCI-H522 lung was 0.00082 µM; in the assay on COLO 205 colon, 0.0651 µM; in the assay with CCRF-CEM leukemia, above 16.7 µM; with HL-60(TB) leukemia it was 0.00229 µM and 0.00952 µM; in the assay with SK-MEL-28 melanoma, above 16.7 µM; in the assay on SW-620 colon, above 16.7 µM. The total growth inhibition concentration (TGI) is above 16.7 µM with OVCAR-5 ovarian and 11.8 µM in the assay on HOP-92 NSCLC.
